# Measurements reported in patent US8551976B2, “Prochelators for inhibiting metal-promoted oxidative stress” (Duke University, priority 2011, dated 2013).
# Assay: Hydrogen Peroxide Oxidation (LC-MS analysis of prochelator conversion)
# Format: physicochemical
# Conditions: 2 mM B-HAPI in water/DMSO, addition of 50 μl concentrated (30%) H2O2, room temperature, 1 h, data not shown
# Description: Hydrogen Peroxide Oxidation. A 40 mM stock solution of B-HAPI in DMSO was prepared. The reaction mixture (2 mM B-HAPI) was prepared by mixing […] of the B-HAPI stock solution with 450 μl of water and 450 μl of DMSO. The reaction was initiated by addition of 50 μl of concentrated (30%) H2O2 solution. The reaction mixture was incubated at room temperature for 1 h and analyzed by LC-MS.
smiles,measurement,value
"C/C(=N\NC(=O)c1ccncc1)c1ccccc1OCc1ccc(B2OC(C)(C)C(C)(C)O2)cc1 [B-HAPI, N′-(1-(2-(4-(4,4,5,5-tetramethyl-1,3,2-dioxaborolan-2-yl)benzyloxy)phenyl)ethylidene)isonitotinohdrazide]",Hydrogen peroxide oxidation: products formed (LC-MS),Formation of the chelator (HAPI) and the intermediate of the self-immolative deprotection reaction was observed
